The numbers were not newly measured in patent US8586092B2 (Xi'an Libang Pharmaceutical Technology Co., Ltd., priority 2009, dated 2013), which cites them from elsewhere.

One series deals with rat. The following applies: orally administered to rat.
The next series deals with mouse. The following applies: in vivo, sc.

As for `O=C(OCc1ccccc1)c1ccccc1` [Benzyl benzoate], the LD50 with rat is 500 mg/kg.
With `C[C@]12CC[C@@H]3c4ccc(O)cc4C[C@@H](CCCCCCCCC[S+]([O-])CCCC(F)(F)C(F)(F)F)[C@H]3[C@@H]1CC[C@@H]2O` (stereo partly drawn) [Fulvestrant, 7-alpha-[9-(4,4,5,5,5-pentafluoropentylsulphinyl)nonyl]estra-1,3,5-(10)-triene-3,17-beta-diol], the aqueous solubility entry was “around 10 ng/ml”.
As to `CCO` [ethanol], the median lethal dose (LD50) in the series with mouse is 8285 mg/kg.
